# Where two headings read alike, the source gives them in different places.
# Key:
# [1] = SAD study: single-dose nacubactam pharmacokinetics (plasma/urine, LC-MS/MS, noncompartmental); format: in vivo; settings: human, iv; for AUC(0-inf) / AUC(0-t) / Cmax / Tmax / k el / clearance / Vd / half-life: plasma
# Protocol: Study treatments were administered as 30-min (SAD study) or 90-min (MAD study) i.v. infusions, the latter to investigate the pharmacokinetics using a longer infusion time, which is commonly used to increase the time above the MIC of β-lactams ([15]). The choice of a 90-min infusion time for the MAD study was dictated by the stability and toxicology data available at the time the study was being designed. […] Safety assessments included monitoring of AEs, laboratory safety tests (hematology, serum chemistry, and urinalysis), 12-lead ECG (discrete recordings and 24-h Holter recording), and vital signs (blood pressure, pulse rate, and body temperature). In the SAD study, safety assessments were performed predose at screening, at day 1, postdose periodically on days 1, 2, and 7 (follow-up), and at early withdrawal, if relevant. […] In the MAD study, safety assessments were done predose at screening, at day 2, postdose periodically on days 1, 2, 4, 7, and 8, on days 13 to 15 (follow-up), and at early withdrawal, if relevant. […] On all other days, a single predose sample was collected for pharmacokinetic evaluation prior to the morning infusion. Blood was collected into lithium-heparin tubes and stored at a nominal –80°C temperature until analysis.
# [2] = Drug-drug interaction analysis nacubactam/meropenem (ANCOVA, geometric mean ratios); format: in vivo, human; settings: nacubactam 2,000 mg single dose, 90% CI
# Protocol: All participants in the active group received a single 2,000-mg dose of both drugs on day 3 and q8h on days 4 to 8, with a final single dose of both drugs on the morning of day 9. A washout period of approximately 24 h between treatments was provided.
# [3] = 1000 mg, single i.v. dose 1,000 mg, n = 6, mean (SD)
# [4] = 2000 mg, single i.v. dose 2,000 mg, n = 6, mean (SD)
# [5] = single i.v. dose 50 mg, n = 6, mean (SD)
# [6] = single i.v. dose 150 mg, n = 6, mean (SD)
# [7] = single i.v. dose 500 mg, n = 6, mean (SD)
smiles,measurement,setting,value
NCCONC(=O)[C@@H]1CC[C@@H]2CN1C(=O)N2OS(=O)(=O)O [Nacubactam],CL renal,"[1]; plasma and urine, single i.v. doses, 6.86 ± 0.64 to 9.66 ± 1.66, read-out: mean CLR (renal clearance), range over the five dose levels",114 to 161 mL/min
same,AUC(0-inf),[1]; [3],143000 ng·h/mL
same,AUC(0-t),[1]; [3],142000 ng·h/mL
same,Cmax,[1]; [3],72000 ng/mL
same,Tmax,[1]; [3],0.5 h
same,k el,[1]; [3],9.72e-05 s⁻¹
same,clearance,"[1]; 1000 mg, single i.v. dose 1,000 mg, n = 6, mean (SD), read-out: CL (converted)",117 mL/min
same,Vd,"[1]; 1000 mg, single i.v. dose 1,000 mg, n = 6, mean (SD), read-out: Vss",17 L
same,half-life,"[1]; 1000 mg, single i.v. dose 1,000 mg, n = 6, mean (SD), read-out: t1/2 (converted)",2.05 h
same,AUC(0-inf),[1]; [4],229000 ng·h/mL
same,AUC(0-t),[1]; [4],229000 ng·h/mL
same,Cmax,[1]; [4],112000 ng/mL
same,Tmax,[1]; [4],0.5 h
same,k el,[1]; [4],8.61e-05 s⁻¹
same,clearance,"[1]; 2000 mg, single i.v. dose 2,000 mg, n = 6, mean (SD), read-out: CL (converted)",146 mL/min
same,Vd,"[1]; 2000 mg, single i.v. dose 2,000 mg, n = 6, mean (SD), read-out: Vss",20.6 L
same,half-life,"[1]; 2000 mg, single i.v. dose 2,000 mg, n = 6, mean (SD), read-out: t1/2 (converted)",2.36 h
same,AUC(0-inf),[1]; [5],5210 ng·h/mL
same,AUC(0-t),[1]; [5],5080 ng·h/mL
same,Cmax,[1]; [5],2690 ng/mL
same,Tmax,[1]; [5],0.54 h
same,k el,[1]; [5],0.000106 s⁻¹
same,clearance,"[1]; single i.v. dose 50 mg, n = 6, mean (SD), read-out: CL (converted)",164 mL/min
same,Vd,"[1]; single i.v. dose 50 mg, n = 6, mean (SD), read-out: Vss",22.4 L
same,half-life,"[1]; single i.v. dose 50 mg, n = 6, mean (SD), read-out: t1/2 (converted)",1.83 h
same,AUC(0-inf),[1]; [6],16300 ng·h/mL
same,AUC(0-t),[1]; [6],16100 ng·h/mL
same,Cmax,[1]; [6],9020 ng/mL
same,Tmax,[1]; [6],0.5 h
same,k el,[1]; [6],0.000111 s⁻¹
same,clearance,"[1]; single i.v. dose 150 mg, n = 6, mean (SD), read-out: CL (converted)",157 mL/min
same,Vd,"[1]; single i.v. dose 150 mg, n = 6, mean (SD), read-out: Vss",20.2 L
same,half-life,"[1]; single i.v. dose 150 mg, n = 6, mean (SD), read-out: t1/2 (converted)",1.76 h
same,AUC(0-inf),[1]; [7],53900 ng·h/mL
same,AUC(0-t),[1]; [7],53600 ng·h/mL
same,Cmax,[1]; [7],31300 ng/mL
same,Tmax,[1]; [7],0.5 h
same,k el,[1]; [7],0.000108 s⁻¹
same,clearance,"[1]; single i.v. dose 500 mg, n = 6, mean (SD), read-out: CL (converted)",156 mL/min
same,Vd,"[1]; single i.v. dose 500 mg, n = 6, mean (SD), read-out: Vss",19.6 L
same,half-life,"[1]; single i.v. dose 500 mg, n = 6, mean (SD), read-out: t1/2 (converted)",1.77 h
same,clearance,"[1]; single i.v. doses 50 to 2,000 mg, read-out: mean CL, range across doses",117 to 164 mL/min
same,Vd,"[1]; single i.v. doses 50 to 2,000 mg, read-out: mean Vss, range across doses",17 to 22.4 L
same,half-life,"[1]; single i.v. doses, 1.76 ± 0.17 to 2.36 ± 0.46, read-out: mean apparent terminal elimination half-life (t1/2), range across doses",1.76 to 2.36 h
same,"CLR GMR, monotherapy vs combination with meropenem",[2]; 0.85 to 1.07,0.95
same,"Vss GMR, monotherapy vs combination with meropenem",[2]; 0.87 to 1.11,0.98

# Source: paper PMC7179653 (Antimicrobial Agents and Chemotherapy, 2020)
